Common to all, as to assay type: cell-based
The target of assay [1] is T1, HER2 (Homo sapiens, UniProt P04626).
T1 construct: BT474 and N87 cell lines which endogenously overexpress the HER2 wildtype (WT) protein; endogenous in cells; host or cells: BT474, N87
In words: HER2 occupancy assay in BT474 cells. Particulars: concentration at which 50% of HER2 is irreversible bound, read-out: BT474 HER2 Occ. How it is done: (§1) In order to assess free HER2 protein, a biotinylated probe was utilized. BT474, N87, and Ba/F3-HER2YVMA cells were treated with test compound as described for HER2 signaling. After compound treatment, cells were washed three times with cold phosphate buffer saline (PBS, Life Technologies, Carlsbad, CA), and lysed in modified occupancy lysis buffer prepared with an irreversible biotinylated tool compound (1 μM) in 25 mM Tris pH 7.5, 150 mM NaCl, 1% Triton, and supplemented with cOmplete, EDTA-free Protease inhibitor cocktail (Roche), Phosphatase Inhibitor Cocktails 2 and 3 (Sigma-Aldrich), and 1 mM PMSF (Sigma-Aldrich).
(§2) To determine % occupancy, lysates were loaded into duplicate plates of the phospho (Tyr1248)/total ErbB2 whole cell lysate MSD kit (Meso-Scale Discovery) and incubated overnight. Plates were washed and incubation with either HER2-sulfoTag (1:50, Meso Scale Discovery) or Strep-Sulfo Tag (1:1000, Meso Scale Discovery), for detection of […]. A standard curve of untreated cells in serial dilution was included in each plate to independently fit streptavidin (Free HER2) and total HER2 MSD signals; non-specific signal (BSA control spots) was subtracted from each well. Free HER2 was then normalized by total HER2 for each sample. The results are reported as % DMSO control. The normalized data was fitted using a sigmoidal curve analysis program (Graph Pad Prism version 6) with variable Hill slope to determine EC50 values. The results are provided in Table 4, under columns titled “BT474-HER2 Occ”, “N87-HER2 Occ”, and “Ba/F3 YVMA-HER2 Occ”. HER2 Occ is the concentration of test compound at which 50% of HER2 is irreversible bound.

In assay [2] the target is T1, HER2. In words: HER2 occupancy assay in N87 cells. As to conditions: concentration at which 50% of HER2 is irreversible bound, read-out: N87 HER2 Occ. Here is the method: as §1, §2
Another assay has as its target HER2YVMA (Homo sapiens, UniProt P04626, INS775YVMA). The experiment in a line: HER2 signaling (pHER2) in BEAS2B-HER2YVMA cells. Also on record: expressed in transfected cells; host or cells: HEK293 (pool), Ba/F3 (clones), BEAS2B (clones); lentiviral vector pCDH-CMV-MCS-EF1-Neo. Particulars: read-out: BEAS2B YVMA pHER2 EC50. How it is done:
Cell culture, plasmid cloning, and lentiviral transduction were carried out according to standard procedures. The Human HER2 cDNA construct in pCMV6-Entry for the HER2 wildtype (WT) expression was obtained from Origene. The HER2 cDNA including the 12-nucleotide insertion corresponding to YVMA insertion (HER2YVMA) was codon optimized, synthesized and cloned by GenScript (Piscataway, NJ) in pcDNA3.1. The lentiviral constructs expressing HER2YVMA and HER2 WT were sub-cloned using PCR at System Biosciences (SBI, Mountainview, CA) into lentiviral vectors pCDH-CMV-MCS-EF1-Neo and lentiviral particles were generated.
Engineered lines expressing HER2YVMA and HER2 WT were prepared in HEK293 (human embryonic kidney cells), Ba/F3 (Interleukin 3 (IL3)-dependent murine pro B cell line), and BEAS2B (primary immortalized human bronchial epithelial cell line). […]
HER2 signaling was assessed in BT474 and N87 cell lines which endogenously overexpress the HER2 wildtype (WT) protein, in NCI-H1781 cells which endogenously expresses a HER2 mutant protein containing a VC insertion in the kinase domain (HER2VC or G776delinsVC), and in engineered cell lines transduced to express the Her2 mutant protein containing the YVMA insertion (Hek293-HER2YVMA and BEAS2B-HER2YVMA). […]
HER2 signaling was evaluated using phospho (Tyr1248)/total ErbB2 whole cell lysate MSD plates (Meso-Scale Discovery, Gaithersburg, MD). […]

T1 sequence (P04626 23-1255): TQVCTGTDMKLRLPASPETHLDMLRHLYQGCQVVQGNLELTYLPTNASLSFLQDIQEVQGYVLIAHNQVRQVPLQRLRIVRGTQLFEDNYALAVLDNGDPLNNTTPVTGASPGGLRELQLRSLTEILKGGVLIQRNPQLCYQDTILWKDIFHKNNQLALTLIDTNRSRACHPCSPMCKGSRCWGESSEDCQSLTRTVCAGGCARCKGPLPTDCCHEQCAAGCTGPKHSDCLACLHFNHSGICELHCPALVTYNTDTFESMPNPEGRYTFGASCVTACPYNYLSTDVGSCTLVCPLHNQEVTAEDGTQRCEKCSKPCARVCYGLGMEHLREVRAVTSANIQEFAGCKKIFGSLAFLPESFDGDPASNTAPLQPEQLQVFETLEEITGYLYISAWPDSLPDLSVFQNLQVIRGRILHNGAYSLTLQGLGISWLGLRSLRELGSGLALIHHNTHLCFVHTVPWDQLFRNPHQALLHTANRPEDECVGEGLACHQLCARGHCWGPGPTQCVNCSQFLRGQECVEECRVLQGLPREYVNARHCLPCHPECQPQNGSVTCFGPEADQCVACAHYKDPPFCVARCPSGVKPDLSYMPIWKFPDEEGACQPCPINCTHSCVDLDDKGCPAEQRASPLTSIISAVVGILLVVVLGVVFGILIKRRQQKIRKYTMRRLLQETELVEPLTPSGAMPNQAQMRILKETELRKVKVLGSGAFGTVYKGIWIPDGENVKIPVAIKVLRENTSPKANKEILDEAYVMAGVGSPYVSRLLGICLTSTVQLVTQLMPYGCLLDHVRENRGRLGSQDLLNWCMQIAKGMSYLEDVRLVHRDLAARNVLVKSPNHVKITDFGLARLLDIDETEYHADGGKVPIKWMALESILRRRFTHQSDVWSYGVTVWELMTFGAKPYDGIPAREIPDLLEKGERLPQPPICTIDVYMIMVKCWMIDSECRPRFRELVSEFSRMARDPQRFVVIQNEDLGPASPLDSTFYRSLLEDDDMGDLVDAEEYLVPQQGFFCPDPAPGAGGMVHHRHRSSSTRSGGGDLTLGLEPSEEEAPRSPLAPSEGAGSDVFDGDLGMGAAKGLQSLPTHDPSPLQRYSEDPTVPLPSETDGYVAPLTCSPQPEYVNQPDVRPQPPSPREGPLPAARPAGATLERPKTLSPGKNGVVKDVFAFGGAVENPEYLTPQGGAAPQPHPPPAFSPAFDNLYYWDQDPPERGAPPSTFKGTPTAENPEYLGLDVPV
Chain of HER2YVMA (P04626 with tags, fused parts or gaps INS775YVMA): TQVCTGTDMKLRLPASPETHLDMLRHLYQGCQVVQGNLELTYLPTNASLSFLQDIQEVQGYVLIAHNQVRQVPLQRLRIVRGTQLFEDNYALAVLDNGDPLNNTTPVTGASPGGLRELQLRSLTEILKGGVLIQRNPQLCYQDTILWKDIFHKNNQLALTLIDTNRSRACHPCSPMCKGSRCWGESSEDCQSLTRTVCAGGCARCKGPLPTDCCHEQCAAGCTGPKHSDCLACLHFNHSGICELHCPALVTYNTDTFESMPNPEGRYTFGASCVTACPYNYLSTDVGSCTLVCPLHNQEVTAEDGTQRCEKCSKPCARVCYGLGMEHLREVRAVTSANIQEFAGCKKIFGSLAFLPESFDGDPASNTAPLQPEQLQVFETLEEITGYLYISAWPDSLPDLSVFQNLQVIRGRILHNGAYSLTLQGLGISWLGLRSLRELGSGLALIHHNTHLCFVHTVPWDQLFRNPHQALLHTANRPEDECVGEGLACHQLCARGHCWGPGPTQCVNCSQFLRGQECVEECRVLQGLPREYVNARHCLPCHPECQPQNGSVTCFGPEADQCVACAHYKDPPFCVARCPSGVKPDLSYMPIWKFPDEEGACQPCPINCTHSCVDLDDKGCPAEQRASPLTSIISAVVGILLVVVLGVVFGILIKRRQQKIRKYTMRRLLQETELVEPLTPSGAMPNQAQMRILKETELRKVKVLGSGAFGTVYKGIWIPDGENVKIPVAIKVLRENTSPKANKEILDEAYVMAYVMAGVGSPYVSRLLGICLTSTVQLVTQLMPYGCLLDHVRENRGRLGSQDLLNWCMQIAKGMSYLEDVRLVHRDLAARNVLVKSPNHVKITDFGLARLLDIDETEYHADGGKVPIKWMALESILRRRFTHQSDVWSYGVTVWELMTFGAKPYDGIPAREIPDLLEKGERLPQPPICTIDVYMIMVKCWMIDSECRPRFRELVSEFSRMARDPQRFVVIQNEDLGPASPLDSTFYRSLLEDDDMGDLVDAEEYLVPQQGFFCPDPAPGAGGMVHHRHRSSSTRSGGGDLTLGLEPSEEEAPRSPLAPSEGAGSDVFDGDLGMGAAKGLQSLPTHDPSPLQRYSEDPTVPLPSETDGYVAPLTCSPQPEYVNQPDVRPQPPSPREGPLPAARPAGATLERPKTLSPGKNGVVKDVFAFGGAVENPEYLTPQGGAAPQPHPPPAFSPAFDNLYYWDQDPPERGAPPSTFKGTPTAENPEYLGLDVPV

As to `CN(C)C/C=C/C(=O)N1CCc2c(sc3ncnc(Nc4ccc(Oc5ccc6ncnn6c5)c(Cl)c4)c23)C1` [Compound 5, (E)-1-(4-((4-([1,2,4]triazolo[1,5-a]pyridin-6-yloxy)-3-chlorophenyl)amino)-5,8-dihydropyrido[4′,3′:4,5]thieno[2,3-d]pyrimidin-7(6H)-yl)-4-(dimethylamino)but-2-en-1-one], the EC50 on HER2 [1] and on HER2 [2] was < 100 nM each time.

On to `COc1ccc(Oc2ccc(Nc3ncnc4sc5c(c34)CCN(C(=O)/C=C/CN(C)C)C5)cc2C)cn1` [Compound 95, (E)-4-(Dimethylamino)-1-(4-((4-((6-methoxypyridin-3-yl)oxy)-3-methylphenyl)amino)-5,6-dihydropyrido[4′,3′:4,5]thieno[2,3-d]pyrimidin-7(8H)-yl)but-2-en-1-one], for which the EC50 at HER2 [2] and on HER2YVMA was < 100 nM each time.
